Measured values: the NIST ThermoML archive (doi:10.1021/je200673a)

Experiment: molar heat capacity at constant pressure
Conditions: 101.33 kPa, Vacuum adiabatic calorimetry

C(#Cc1ccccc1)c1ccccc1 [1,2-diphenylethyne]
molar heat capacity at constant pressure [J/K/mol]
Conditions	Crystal	Liquid
122.93 K	102.01	–
123.75 K	102.53	–
124.57 K	103.09	–
125.39 K	103.65	–
126.22 K	103.97	–
127.04 K	104.54	–
127.87 K	104.88	–
128.69 K	105.58	–
129.52 K	106.14	–
130 K	106.33	–
130.34 K	106.59	–
131.19 K	107.21	–
132.02 K	107.62	–
132.85 K	107.99	–
133.68 K	108.55	–
134.51 K	108.88	–
135.34 K	109.34	–
136.17 K	110.18	–
137.01 K	110.88	–
137.84 K	111.19	–
138.67 K	111.61	–
139.51 K	112.13	–
140 K	112.5	–
140.35 K	112.75	–
141.18 K	113.14	–
142.02 K	113.86	–
142.86 K	114.26	–
143.7 K	114.81	–
144.56 K	115.47	–
145.4 K	115.88	–
146.24 K	116.41	–
147.08 K	117.03	–
147.93 K	117.53	–
148.77 K	118.01	–
149.61 K	118.61	–
150 K	118.79	–
150.46 K	119.09	–
151.31 K	119.49	–
152.15 K	120.1	–
153 K	120.73	–
153.85 K	121.21	–
154.7 K	121.63	–
155.55 K	122.47	–
156.4 K	122.86	–
157.25 K	123.14	–
158.14 K	124.01	–
158.99 K	124.43	–
159.85 K	125.3	–
160 K	125.14	–
160.7 K	125.66	–
161.56 K	125.9	–
162.42 K	126.63	–
163.28 K	127.28	–
164.14 K	127.86	–
165 K	128.31	–
165.86 K	128.78	–
166.72 K	129.29	–
167.58 K	130.02	–
168.45 K	130.59	–
169.31 K	131.32	–
170 K	131.53	–
170.18 K	131.71	–
171.05 K	132.15	–
171.96 K	132.79	–
172.83 K	133.42	–
173.7 K	133.85	–
174.57 K	134.6	–
175.44 K	135.11	–
176.31 K	135.5	–
177.19 K	135.99	–
178.06 K	136.73	–
178.94 K	137.42	–
179.82 K	137.82	–
180 K	138	–
180.7 K	138.43	–
181.58 K	138.91	–
182.46 K	139.54	–
183.34 K	140.11	–
184.22 K	140.8	–
185.11 K	141.42	–
186.05 K	142.12	–
186.93 K	142.62	–
187.82 K	143.19	–
188.71 K	143.74	–
189.6 K	144.35	–
190 K	144.57	–
190.5 K	144.84	–
191.39 K	145.31	–
192.29 K	146.01	–
193.18 K	146.68	–
194.08 K	147.37	–
194.98 K	147.95	–
196.78 K	149.26	–
197.68 K	149.46	–
198.59 K	150.29	–
199.5 K	151.03	–
200 K	151.06	–
200.7 K	151.27	–
202.04 K	151.99	–
203.39 K	152.98	–
204.73 K	154.54	–
206.08 K	154.9	–
207.42 K	155.84	–
208.77 K	156.73	–
210 K	157.57	–
210.11 K	157.51	–
211.46 K	158.55	–
212.8 K	159.5	–
214.14 K	160.32	–
215.49 K	161.29	–
216.83 K	162.37	–
218.17 K	163	–
219.51 K	164.34	–
220 K	164.63	–
220.86 K	165.39	–
222.28 K	166.49	–
223.62 K	167.21	–
224.96 K	168.09	–
226.3 K	169.06	–
227.64 K	170.12	–
228.97 K	171	–
230 K	171.85	–
230.31 K	171.96	–
231.65 K	173.01	–
232.99 K	173.91	–
234.32 K	174.98	–
235.65 K	175.95	–
236.99 K	176.85	–
238.33 K	177.98	–
239.66 K	179.01	–
240 K	179.11	–
240.99 K	179.99	–
242.32 K	180.88	–
243.73 K	181.99	–
245.07 K	182.85	–
246.4 K	183.79	–
247.73 K	184.64	–
249.06 K	185.75	–
250 K	186.45	–
250.39 K	185.54	–
251.71 K	187.74	–
253.03 K	188.91	–
254.36 K	189.53	–
255.68 K	190.6	–
257 K	191.87	–
258.32 K	192.68	–
259.65 K	193.82	–
260 K	193.93	–
260.97 K	194.81	–
262.28 K	195.65	–
263.6 K	197.01	–
264.98 K	198.01	–
266.3 K	198.7	–
267.61 K	199.72	–
268.93 K	200.72	–
270 K	201.56	–
270.24 K	201.85	–
271.55 K	202.64	–
272.86 K	203.72	–
274.17 K	204.75	–
275.47 K	205.78	–
276.77 K	206.87	–
278.07 K	207.63	–
279.37 K	208.98	–
280 K	209.29	–
280.67 K	209.89	–
281.97 K	210.65	–
283.26 K	211.51	–
284.56 K	212.46	–
285.9 K	213.85	–
287.2 K	214.7	–
288.49 K	216.02	–
289.78 K	216.96	–
290 K	216.99	–
291.06 K	217.78	–
292.34 K	219.03	–
293.62 K	219.44	–
294.9 K	220.27	–
296.17 K	221.66	–
297.45 K	223.35	–
298.15 K	223.14	–
298.72 K	223.61	–
299.98 K	224.36	–
300 K	224.51	–
301.47 K	225.51	–
303.12 K	227.1	–
304.78 K	228.38	–
306.45 K	228.99	–
308.12 K	230.51	–
309.79 K	231.08	–
310 K	231.76	–
311.46 K	232.91	–
313.14 K	234.02	–
314.83 K	234.92	–
316.52 K	236.14	–
318.22 K	238.29	–
319.93 K	238.52	–
320 K	238.87	–
321.63 K	240.17	–
323.34 K	241.21	–
325.06 K	242.48	–
330 K	245.96	–
332.03 K	247.4	302
340 K	–	303.79
348.64 K	–	304.58
348.68 K	–	305.37
350 K	–	306.04
350.47 K	–	306.11
350.59 K	–	307.42
352.28 K	–	307.07
352.61 K	–	306.03
354.1 K	–	304.34
354.59 K	–	307.75
355.9 K	–	307.73
356.6 K	–	308.43
357.73 K	–	308.85
358.63 K	–	305.76
359.56 K	–	309.14
360 K	–	308.41
360.65 K	–	308.73
361.57 K	–	306.43
362.7 K	–	310.22
363.41 K	–	309.69
364.77 K	–	310.47
365.26 K	–	310.84
367.13 K	–	305.78
367.19 K	–	311.76
369.03 K	–	310.48
369.32 K	–	308.58
370 K	–	309.93
370.91 K	–	308.47
371.44 K	–	311.8
